In patent US20240327415A1, “Multicomponent Complexes, Including Salts, Crystalline Forms, and Hydrates and Solvates of ENT1 Inhibitors” (iTeos Belgium SA, priority 2023, published 2024):

Tests used:
[1] = salt screen, XRPD of damp, dried and 40° C./75% RH stored samples (Salt Preparation Methods 1 and 2); format: physicochemical; set-up: key to XRPD Analysis Damp/Dry: A = amorphous; Evap. = isolated via evaporation; conditions: for XRPD Analysis Damp / XRPD Analysis Dry: Ethyl acetate; for XRPD Analysis Damp/Dry: (evap.)
Procedure: (§1) Salt Preparation Method 1: Approximately 25 mg of Compound 1 (free base) was weighed out into 1.5 mL screw-cap vials and a stirrer bar was added. For solid counterions, the appropriate amount of acid (1.0 or 2.0 equiv.) was weighed into separate 1.5 mL screw-cap vials. 100 μL of the appropriate solvent system was added to both the Compound 1 and the solid counterions. Stock solutions of liquid counterions were prepared, such that 100 μL contained 1.0 or 2.0 equiv. of acid. See counterion and solvent lists in Table 60 and Table 61 respectively.
(§2) The samples were stirred at 40° C. for 5-10 min and then the acid solutions were added to Compound 1, rinsing out the transfer vial with a further 50 μL of solvent. […] Experiments were temperature cycled between 40° C. and 5° C. (1 h hold; 0.1° C./min ramp/cool) for ca. 24-68 h. Anti-solvent addition (ASA) was carried out to slurries at 5° C. then experiments were heated to 30° C. over 1 h. ASA was carried out at 30° C. or 40° C. where clear solutions or gums were observed.
(§3) Temperature cycling was then continued for ca. 16-69 h, followed by further ASA and temperature cycling if required. Material was isolated at 5° C. and analyzed damp by XRPD. All isolated material was dried under vacuum at ca. 40° C. for ca. 17-91 h then re-analyzed by XRPD. The XRPD plate was stored at 40° C./75% RH for 24-48 h and then samples re-analyzed. Solutions were stored uncapped at ambient temperature to evaporate. Any residual solids were analyzed by XRPD.
(§4) Salt Preparation Method 2: The general procedure adopted in preparing the potential salts is outlined below. A known mass of Compound 1 (free base) and a known volume of the appropriate solvent system were added to 20 mL scintillation vials. The required mol. equiv. of the appropriate counterions were added to the vials as solutions or slurries in the corresponding solvent system.
(§5) The experiments were stirred at 40° C. for ca. 1 h, and then temperature cycled between 40° C. and 5° C. with 0.1° C./min ramp and 1 h hold between each step. Anti-solvent additions and subsequent slurrying at 5° C. were employed in order to facilitate crystallization. […] The damp and dried solids were subsampled and analyzed by XRPD. Where applicable, the dried solids were stored at 40° C./75% RH for 24-48 h in order to improve the crystallinity and/or facilitate solid form conversion to the desired form.

[2] = as above; format: physicochemical; set-up: key: A = amorphous; Evap. = isolated via evaporation
Procedure: as §1, §2, §3, §4, §5

[3] = Citric acid, 1 equiv., AS Heptane
[4] = Citric acid, 1 equiv., Acetonitrile, AS tBME
[5] = Citric acid, 1 equiv., Ethanol, AS Heptane
[6] = Citric acid, 1 equiv., IPA:H2O (75:25% v/v), AS tBME
[7] = Citric acid, 1 equiv., MEK, AS Heptane
[8] = Citric acid, 1 equiv., THF, AS Heptane
[9] = L-Tartaric acid, 1 equiv., AS Heptane
[10] = L-Tartaric acid, 1 equiv., Acetonitrile, AS tBME
[11] = L-Tartaric acid, 1 equiv., Ethanol, AS Heptane
[12] = L-Tartaric acid, 1 equiv., IPA:H2O (75:25% v/v), AS tBME
[13] = L-Tartaric acid, 1 equiv., MEK, AS Heptane
[14] = L-Tartaric acid, 1 equiv., THF, AS Heptane
[15] = Maleic acid, 1 equiv., IPA:H2O (75:25% v/v), AS tBME
[16] = Maleic acid, 1 equiv., Acetonitrile, AS tBME
[17] = Maleic acid, 1 equiv., Ethanol, AS Heptane
[18] = Maleic acid, 1 equiv., Ethyl acetate, AS Heptane
[19] = Maleic acid, 1 equiv., MEK, AS Heptane
[20] = Maleic acid, 1 equiv., THF, AS Heptane
[21] = Methanesulfonic acid, 1 equiv., Ethanol, AS Heptane
[22] = Methanesulfonic acid, 1 equiv., IPA:H2O (75:25% v/v), AS tBME
[23] = Methanesulfonic acid, 1 equiv., Acetonitrile, AS tBME
[24] = Methanesulfonic acid, 1 equiv., Ethyl acetate, AS Heptane
[25] = Methanesulfonic acid, 1 equiv., MEK, AS Heptane
[26] = Methanesulfonic acid, 1 equiv., THF, AS Heptane
[27] = Methanesulfonic acid, 2 equiv., IPA:H2O (75:25% v/v), AS tBME
[28] = Methanesulfonic acid, 2 equiv., Acetonitrile, AS tBME
[29] = Methanesulfonic acid, 2 equiv., Ethanol, AS Heptane
[30] = Methanesulfonic acid, 2 equiv., Ethyl acetate, AS Heptane
[31] = Methanesulfonic acid, 2 equiv., MEK, AS Heptane
[32] = Methanesulfonic acid, 2 equiv., THF, AS Heptane

## O=C(O)CC(O)(CC(=O)O)C(=O)O [Citric acid, 1 equiv.]
[1]; [3]
  XRPD Analysis Damp: PC, CI
  XRPD Analysis Dry: PC, CI
[2]; [4]
  XRPD Analysis 40° C. 75% RH: A
  XRPD Analysis Damp: A
  XRPD Analysis Dry: A
[2]; [5]
  XRPD Analysis 40° C. 75% RH: A
  XRPD Analysis Damp: A
  XRPD Analysis Dry: A
[2]; Citric acid, 1 equiv., Ethyl acetate, AS Heptane
  XRPD Analysis 40° C. 75% RH: A
[2]; [6]
  XRPD Analysis 40° C. 75% RH: A
  XRPD Analysis Damp: A
  XRPD Analysis Dry: A
[2]; [7]
  XRPD Analysis 40° C. 75% RH: A
  XRPD Analysis Damp: A
  XRPD Analysis Dry: A
[2]; [8]
  XRPD Analysis 40° C. 75% RH: A
  XRPD Analysis Damp: A
  XRPD Analysis Dry: A

## O=C(O)C(O)C(O)C(=O)O [L-Tartaric acid, 1 equiv.]
[1]; [9]
  XRPD Analysis Damp: PC, CI
  XRPD Analysis Dry: PC, CI
[2]; [10]
  XRPD Analysis 40° C. 75% RH: A
  XRPD Analysis Damp: A
  XRPD Analysis Dry: A
[2]; [11]
  XRPD Analysis 40° C. 75% RH: A
  XRPD Analysis Damp: A
  XRPD Analysis Dry: A
[2]; L-Tartaric acid, 1 equiv., Ethyl acetate, AS Heptane
  XRPD Analysis 40° C. 75% RH: A
[2]; [12]
  XRPD Analysis 40° C. 75% RH: A
  XRPD Analysis Damp: A
  XRPD Analysis Dry: A
[2]; [13]
  XRPD Analysis 40° C. 75% RH: A
  XRPD Analysis Damp: A
  XRPD Analysis Dry: A
[2]; [14]
  XRPD Analysis 40° C. 75% RH: A
  XRPD Analysis Damp: A
  XRPD Analysis Dry: A

## O=C(O)/C=C\C(=O)O [Maleic acid, 1 equiv.]
[1]; [15]
  XRPD Analysis Damp/Dry: A (evap.)
[2]; [16]
  XRPD Analysis 40° C. 75% RH: A
  XRPD Analysis Damp: A
  XRPD Analysis Dry: A
[2]; [17]
  XRPD Analysis 40° C. 75% RH: A
  XRPD Analysis Damp: A
  XRPD Analysis Dry: A
[2]; [18]
  XRPD Analysis 40° C. 75% RH: A
  XRPD Analysis Damp: A
  XRPD Analysis Dry: A
[2]; [15]
  XRPD Analysis 40° C. 75% RH: A
[2]; [19]
  XRPD Analysis 40° C. 75% RH: A
  XRPD Analysis Damp: A
  XRPD Analysis Dry: A
[2]; [20]
  XRPD Analysis 40° C. 75% RH: A
  XRPD Analysis Damp: A
  XRPD Analysis Dry: A

## CS(=O)(=O)O [Methanesulfonic acid, 1 equiv.]
[1]; [21]
  XRPD Analysis Damp/Dry: A (evap.)
[1]; [22]
  XRPD Analysis Damp/Dry: A (evap.)
[2]; [23]
  XRPD Analysis 40° C. 75% RH: A
  XRPD Analysis Damp: A
  XRPD Analysis Dry: A
[2]; [21]
  XRPD Analysis 40° C. 75% RH: A
[2]; [24]
  XRPD Analysis 40° C. 75% RH: A
  XRPD Analysis Damp: A
  XRPD Analysis Dry: A
[2]; [22]
  XRPD Analysis 40° C. 75% RH: A
[2]; [25]
  XRPD Analysis 40° C. 75% RH: A
  XRPD Analysis Damp: A
  XRPD Analysis Dry: A
[2]; [26]
  XRPD Analysis 40° C. 75% RH: A
  XRPD Analysis Damp: A
  XRPD Analysis Dry: A

## CS(=O)(=O)O [Methanesulfonic acid, 2 equiv.]
[1]; [27]
  XRPD Analysis Damp/Dry: A (evap.)
[2]; [28]
  XRPD Analysis 40° C. 75% RH: A
  XRPD Analysis Damp: A
  XRPD Analysis Dry: A
[2]; [29]
  XRPD Analysis 40° C. 75% RH: A
  XRPD Analysis Damp: A
  XRPD Analysis Dry: A
[2]; [30]
  XRPD Analysis 40° C. 75% RH: A
  XRPD Analysis Damp: A
  XRPD Analysis Dry: A
[2]; [27]
  XRPD Analysis 40° C. 75% RH: A
[2]; [31]
  XRPD Analysis 40° C. 75% RH: A
  XRPD Analysis Damp: A
  XRPD Analysis Dry: A
[2]; [32]
  XRPD Analysis 40° C. 75% RH: A
  XRPD Analysis Damp: A
  XRPD Analysis Dry: A
